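Step 1: Grow cells in 96-well plates. Step 2: Expose to compound for 48 hours at 5 concentrations. Step 3: Interpolate endpoints linearly; if unreached, use highest concentration. The concentration for 50% growth inhibition is given as GI50.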 The source made the active and inactive calls. Cut-off read from the data, not from the text of the source: active = GI50 up to about 1.1 µM and inactive = higher.
Columns and labels:
Experiment in all cases: growth of human tumour cells (NCI), 48 h
A498 = test system: A498
A549 = test system: A549
HT-29 = test system: HT-29
COLO 205 = test system: COLO 205
SNB-19 = test system: SNB-19
Hs-578T = test system: Hs-578T
OVCAR-4 = test system: OVCAR-4
ACHN = test system: ACHN
PC-3 = test system: PC-3
NCI-H522 = test system: NCI-H522
CAKI-1 = test system: CAKI-1
SK-MEL-5 = test system: SK-MEL-5
MCF7 = test system: MCF7
K562 = test system: K562
SK-MEL-2 = test system: SK-MEL-2
NCI-H460 = test system: NCI-H460
SF-539 = test system: SF-539
OVCAR-3 = test system: OVCAR-3
HCC 2998 = test system: HCC 2998
HCT-116 = test system: HCT-116

Row | Structure (SMILES) | GI50 (A498) | GI50 (A549) | GI50 (HT-29) | GI50 (COLO 205) | GI50 (SNB-19) | GI50 (Hs-578T) | GI50 (OVCAR-4) | GI50 (ACHN) | GI50 (PC-3) | GI50 (NCI-H522) | GI50 (CAKI-1) | GI50 (SK-MEL-5) | GI50 (MCF7) | GI50 (K562) | GI50 (SK-MEL-2) | GI50 (NCI-H460) | GI50 (SF-539) | GI50 (OVCAR-3) | GI50 (HCC 2998) | GI50 (HCT-116)
1 | O=C1CNNC(CSc2nc3ccc(I)cc3c(=O)n2Cc2ccccc2)=N1 | 27.8 µM (inactive) | 38.5 µM (inactive) | 33.7 µM (inactive) | 14.1 µM (inactive) | 53.5 µM (inactive) | 32.9 µM (inactive) | 37.4 µM (inactive) | 16.3 µM (inactive) | 24.5 µM (inactive) | 23 µM (inactive) | 15 µM (inactive) | 15.7 µM (inactive) | 28.4 µM (inactive) | 23.7 µM (inactive) | 16.4 µM (inactive) | 30.9 µM (inactive) | 22.5 µM (inactive) | 18.6 µM (inactive) | 27 µM (inactive) | 20.8 µM (inactive)
2 | CCOC(=O)CCC(NC(=O)c1ccc(CNc2nc3cc(N)cc(N)c3nc2-c2ccccc2)cc1)C(=O)OCC (configuration not stated) | > 100 µM (inactive) | > 100 µM (inactive) | > 100 µM (inactive) | 27.5 µM (inactive) | > 100 µM (inactive) | > 84.5 µM (inactive) | 17.4 µM (inactive) | > 100 µM (inactive) | > 100 µM (inactive) | 28.4 µM (inactive) | > 100 µM (inactive) | > 83 µM (inactive) | > 87.3 µM (inactive) | 15.3 µM (inactive) | 28.8 µM (inactive) | 34 µM (inactive) | > 100 µM (inactive) | 27 µM (inactive) | > 100 µM (inactive) | > 95.9 µM (inactive)
3 | FC(F)(F)c1cccc(-c2nc3nc(Cl)c(Cl)nc3[nH]2)c1 | 1.75 µM (inactive) | 2 µM (inactive) | 2.18 µM (inactive) | 1.45 µM (inactive) | 3.27 µM (inactive) | 2.57 µM (inactive) | 2.28 µM (inactive) | 2.63 µM (inactive) | 2.5 µM (inactive) | 0.764 µM (active) | 2.73 µM (inactive) | 0.544 µM (active) | 0.0241 µM (active) | 1.74 µM (inactive) | 1.56 µM (inactive) | 2.01 µM (inactive) | 3.15 µM (inactive) | 1.59 µM (inactive) | 3.11 µM (inactive) | 2.09 µM (inactive)
4 | O=C1C[C@@]23CCC4(CC2=CCC[C@H]3O1)OCCO4 | > 100 µM (inactive) | > 100 µM (inactive) | > 100 µM (inactive) | > 100 µM (inactive) | > 100 µM (inactive) | > 100 µM (inactive) | > 100 µM (inactive) | > 100 µM (inactive) | > 100 µM (inactive) | > 100 µM (inactive) | > 100 µM (inactive) | > 100 µM (inactive) | > 100 µM (inactive) | > 100 µM (inactive) | > 100 µM (inactive) | > 100 µM (inactive) | > 100 µM (inactive) | > 100 µM (inactive) | > 100 µM (inactive) | > 100 µM (inactive)
5 | COC(=O)C(Cc1ccccc1)NP(=O)(O)OCC1OC(n2ccc(N)nc2=O)C(O)C1O (configuration not stated) | > 100 µM (inactive) | > 100 µM (inactive) | > 100 µM (inactive) | > 100 µM (inactive) | > 100 µM (inactive) | > 100 µM (inactive) | > 100 µM (inactive) | > 100 µM (inactive) | > 100 µM (inactive) | > 100 µM (inactive) | > 100 µM (inactive) | > 100 µM (inactive) | > 100 µM (inactive) | > 100 µM (inactive) | > 100 µM (inactive) | > 100 µM (inactive) | > 100 µM (inactive) | > 100 µM (inactive) | > 100 µM (inactive) | > 100 µM (inactive)
6 | O=[N+]([O-])c1ccc(C2=NOC(c3ccc(Cl)cc3)N2C23CC4CC(CC(C4)C2)C3)cc1 (configuration not stated) | > 100 µM (inactive) | 56.9 µM (inactive) | > 100 µM (inactive) | > 100 µM (inactive) | > 100 µM (inactive) | 34.9 µM (inactive) | > 100 µM (inactive) | 9.71 µM (inactive) | > 100 µM (inactive) | > 100 µM (inactive) | 16.6 µM (inactive) | 53 µM (inactive) | 40.6 µM (inactive) | > 100 µM (inactive) | 20.2 µM (inactive) | > 100 µM (inactive) | > 100 µM (inactive) | > 100 µM (inactive) | 64.1 µM (inactive) | 28.1 µM (inactive)
7 | COc1cc([C@@H]2c3cc4c(cc3[C@@H](Nc3ccc(Cl)cc3C(=O)c3ccccc3)[C@H]3COC(=O)[C@H]23)OCO4)cc(OC)c1OC | 0.195 µM (active) | 0.501 µM (active) | 0.307 µM (active) | 0.416 µM (active) | 0.408 µM (active) | 0.287 µM (active) | > 100 µM (inactive) | 0.592 µM (active) | 0.342 µM (active) | 0.211 µM (active) | 0.601 µM (active) | 0.298 µM (active) | 0.395 µM (active) | 0.358 µM (active) | 2.34 µM (inactive) | 0.277 µM (active) | 0.274 µM (active) | 0.324 µM (active) | 0.205 µM (active) | 0.291 µM (active)
8 | S=C1N=C2C(=N1)n1c3c(c4ccccc41)CCCC23 (configuration not stated) | > 100 µM (inactive) | 29.2 µM (inactive) | 35.1 µM (inactive) | 42 µM (inactive) | 56.8 µM (inactive) | 44.1 µM (inactive) | 67.5 µM (inactive) | > 100 µM (inactive) | 48.5 µM (inactive) | 22.1 µM (inactive) | 42.4 µM (inactive) | 36.8 µM (inactive) | 24 µM (inactive) | 33.1 µM (inactive) | > 100 µM (inactive) | 38.6 µM (inactive) | 43.3 µM (inactive) | 52.4 µM (inactive) | > 100 µM (inactive) | 35.2 µM (inactive)
9 | CS[C@]12[C@@H]3C(=O)N(C)C(=O)[C@@H]3[C@](C)(C(=O)N1C)C(=O)N2c1ccccc1 | > 100 µM (inactive) | > 100 µM (inactive) | > 100 µM (inactive) | > 100 µM (inactive) | > 100 µM (inactive) | > 100 µM (inactive) | > 100 µM (inactive) | > 100 µM (inactive) | > 100 µM (inactive) | > 100 µM (inactive) | > 100 µM (inactive) | > 100 µM (inactive) | > 100 µM (inactive) | – | > 100 µM (inactive) | – | > 100 µM (inactive) | > 100 µM (inactive) | > 100 µM (inactive) | > 100 µM (inactive)
10 | CCOC1OC(COC(=O)C(C)(C)C)C(O)CC1n1cc(C)c(=O)[nH]c1=O (configuration not stated) | > 100 µM (inactive) | > 100 µM (inactive) | > 100 µM (inactive) | > 100 µM (inactive) | > 100 µM (inactive) | > 100 µM (inactive) | > 100 µM (inactive) | > 100 µM (inactive) | > 100 µM (inactive) | > 100 µM (inactive) | > 100 µM (inactive) | > 100 µM (inactive) | > 100 µM (inactive) | > 100 µM (inactive) | > 100 µM (inactive) | > 100 µM (inactive) | > 100 µM (inactive) | > 100 µM (inactive) | > 100 µM (inactive) | > 100 µM (inactive)
11 | CN(C)CCCNc1nnc(NCCCN(C)C)c2c(=O)c3sccc3[nH]c12 | 41.4 µM (inactive) | 5.41 µM (inactive) | – | 2.82 µM (inactive) | 31.7 µM (inactive) | 23.2 µM (inactive) | 5.42 µM (inactive) | 5.85 µM (inactive) | 6.01 µM (inactive) | 4.02 µM (inactive) | 5.05 µM (inactive) | 1.4 µM (inactive) | 5.64 µM (inactive) | 3.48 µM (inactive) | 18.4 µM (inactive) | 3.51 µM (inactive) | 5.51 µM (inactive) | 14.2 µM (inactive) | 6.68 µM (inactive) | 9.46 µM (inactive)
12 | O=C1C2=C(C(=O)c3c(O)ccc(O)c31)[C@@H](O)[C@@H](O)[C@@H](O)C2 | 7.05 µM (inactive) | 3.21 µM (inactive) | 1.32 µM (inactive) | 0.0741 µM (active) | 13.1 µM (inactive) | 3.72 µM (inactive) | 1.93 µM (inactive) | 2.52 µM (inactive) | 2.66 µM (inactive) | 0.367 µM (active) | 1.37 µM (inactive) | 1.74 µM (inactive) | 1.11 µM (active) | 2.77 µM (inactive) | 1.73 µM (inactive) | 4.71 µM (inactive) | 3.71 µM (inactive) | 0.504 µM (active) | 7.33 µM (inactive) | 0.47 µM (active)
13 | CCCCc1ccc(Nc2nc(Cl)c3c(ncn3COCCOC(C)=O)n2)cc1 | 20.5 µM (inactive) | 19 µM (inactive) | 18.7 µM (inactive) | 22.3 µM (inactive) | 20.9 µM (inactive) | 21.5 µM (inactive) | 24.8 µM (inactive) | 18.5 µM (inactive) | 20.9 µM (inactive) | 17.2 µM (inactive) | 25.9 µM (inactive) | 18.7 µM (inactive) | 22.5 µM (inactive) | 24.4 µM (inactive) | 19.1 µM (inactive) | 18.3 µM (inactive) | 19 µM (inactive) | 21.2 µM (inactive) | 19.9 µM (inactive) | 17.3 µM (inactive)
14 | CC(=O)N1c2ccccc2C23CCN4CC5=CCOC(O)C(C5CC42)C13 (configuration not stated) | > 100 µM (inactive) | > 100 µM (inactive) | > 100 µM (inactive) | > 100 µM (inactive) | > 100 µM (inactive) | > 100 µM (inactive) | > 100 µM (inactive) | > 100 µM (inactive) | > 100 µM (inactive) | > 100 µM (inactive) | > 100 µM (inactive) | > 100 µM (inactive) | > 100 µM (inactive) | 31.9 µM (inactive) | > 100 µM (inactive) | > 100 µM (inactive) | > 100 µM (inactive) | > 100 µM (inactive) | > 100 µM (inactive) | > 100 µM (inactive)

From ChEMBL document CHEMBL1201862, “PubChem BioAssay data set” (2004)
